Among the test systems are MDA-MB-435; OVCAR-8; SR; SN12C; NCI/ADR-RES; OVCAR-4; UO-31; M14; RPMI-8226; SK-MEL-5; 786-0; RXF 393; NCI-H460; MDA-N; MCF7; SW-620; OVCAR-3; HCC 2998; SK-OV-3; SF-539.
What all share (test): NCI tumour cell line growth inhibition, 48 h

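Where inhibition never reached the appropriate level, the endpoint shown equals the highest concentration tested. Otherwise, values were interpolated linearly from a five-concentration, 48-hour dose response in 96-well plates. GI50 is the concentration that inhibits growth by half.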 The source made the active and inactive calls. Cut-off read from the data, not from the text of the source: active = GI50 up to about 1.1 µM and inactive = higher.

Regarding `CCOC(=O)c1cc(-c2ccn(C(C)=O)c2)c(-c2cc(C)co2)[nH]1`, the GI50 in the experiment with MDA-MB-435, in the experiment with OVCAR-8, in the experiment on SR, in the experiment with SN12C, in the experiment with NCI/ADR-RES and in the experiment on OVCAR-4 was > 100 µM (inactive) throughout. Further, the GI50 in the experiment on UO-31, in the experiment on M14, in the experiment with RPMI-8226, in the experiment on SK-MEL-5, in the experiment on 786-0 and in the experiment on RXF 393 was > 100 µM (inactive) throughout. Further, the GI50 in the experiment on NCI-H460, in the experiment on MDA-N, in the experiment on MCF7, in the experiment on SW-620, in the experiment with OVCAR-3 and with HCC 2998 was > 100 µM (inactive) in each case.

`Cc1c(CN2CCN(C)CC2)c(CN2CCN(C)CC2)c(C)n1-c1ccc(Cl)cc1`: the GI50 is 25.1 µM (inactive) in the experiment with MDA-MB-435; 19.9 µM (inactive) in the experiment with OVCAR-8; 17.4 µM (inactive) with SR; > 100 µM (inactive) in the experiment on SN12C; > 100 µM (inactive) in the experiment on NCI/ADR-RES; 79.1 µM (inactive) with OVCAR-4. Further, the GI50 with UO-31 is 26.9 µM (inactive); with M14, 14.6 µM (inactive); in the experiment on RPMI-8226, 47.2 µM (inactive); with SK-MEL-5, 16.8 µM (inactive); in the experiment on 786-0, 16.9 µM (inactive); in the experiment on SK-OV-3, > 100 µM (inactive). The GI50 with RXF 393 was 17.1 µM (inactive); in the experiment with NCI-H460, 50.7 µM (inactive); in the experiment on MDA-N, 21 µM (inactive); with MCF7 it was 39.5 µM (inactive); with SW-620, 54.2 µM (inactive); in the experiment with OVCAR-3 it was 94.8 µM (inactive). In addition, the GI50 with HCC 2998 was 39.7 µM (inactive).

`CC(=O)O[C@@H]1C=C(C)[C@H](CBr)O[C@@]2(C)CC[C@H](Br)C(C)(C)[C@H]12`: the GI50 in the experiment on MDA-MB-435 is > 100 µM (inactive); in the experiment on OVCAR-8, > 100 µM (inactive); in the experiment with SR it was 41.2 µM (inactive); in the experiment on SN12C, > 100 µM (inactive); with NCI/ADR-RES it was 2.94 µM (inactive); in the experiment with SF-539, > 100 µM (inactive). Further, the GI50 in the experiment on OVCAR-4, in the experiment with UO-31, in the experiment with M14, in the experiment with RPMI-8226, with SK-MEL-5 and in the experiment on 786-0 was > 100 µM (inactive) in each case. Besides, the GI50 in the experiment on SK-OV-3, with RXF 393, in the experiment with NCI-H460, in the experiment with MDA-N, in the experiment on MCF7 and in the experiment with SW-620 was > 100 µM (inactive) each time. In addition, in the experiment on HCC 2998, the GI50 was > 100 µM (inactive).

For `CC(=O)n1c2ccc(Br)cc2c2nc3ccccc3nc21`, the GI50 with MDA-MB-435, in the experiment with OVCAR-8, in the experiment with SR, in the experiment on SN12C, in the experiment on NCI/ADR-RES and with SF-539 was > 100 µM (inactive) throughout. Besides, the GI50 in the experiment with OVCAR-4 was 75.3 µM (inactive); with UO-31, > 100 µM (inactive); with M14, > 100 µM (inactive); in the experiment on RPMI-8226, > 100 µM (inactive); with SK-MEL-5 it was > 100 µM (inactive); with 786-0, > 100 µM (inactive). The GI50 in the experiment with RXF 393 was > 100 µM (inactive); with NCI-H460 it was > 100 µM (inactive); with MDA-N, > 100 µM (inactive); with MCF7 it was 56.2 µM (inactive); in the experiment with SW-620, > 100 µM (inactive); with OVCAR-3, > 100 µM (inactive). Besides, in the experiment on HCC 2998, the GI50 was > 100 µM (inactive).

For the compound `COc1cc(Br)cc2cc(C3=CSC4=NCCN34)c(=O)oc12`, the GI50 was 17.8 µM (inactive) with MDA-MB-435; 17.8 µM (inactive) with OVCAR-8; 21.9 µM (inactive) with SR; 17.5 µM (inactive) in the experiment on SN12C; 65.9 µM (inactive) in the experiment on NCI/ADR-RES; 19.9 µM (inactive) with SF-539. Moreover, the GI50 is 18.2 µM (inactive) with OVCAR-4; 19.3 µM (inactive) in the experiment on UO-31; 22.2 µM (inactive) in the experiment on M14; 22.7 µM (inactive) with RPMI-8226; 20 µM (inactive) in the experiment on SK-MEL-5; 18.4 µM (inactive) with 786-0. For the same compound, the GI50 in the experiment with SK-OV-3 is 27.9 µM (inactive); in the experiment on RXF 393 it was 17.5 µM (inactive); with NCI-H460 it was 19.9 µM (inactive); in the experiment on MDA-N it was 18.5 µM (inactive); with MCF7, 18 µM (inactive); in the experiment with SW-620, 25.3 µM (inactive). Besides, in the experiment on OVCAR-3, the GI50 is 16.8 µM (inactive).

`CCOP(=O)(C=C=C1CCC2[C@@H]3CCc4cc(OC)ccc4C3CC[C@]12C)OCC` (some centres not stated): the GI50 with MDA-MB-435 is 12.4 µM (inactive); in the experiment on OVCAR-8 it was 11 µM (inactive); with SR, 1 µM (active); with SN12C, 10.4 µM (inactive); with NCI/ADR-RES it was 6.47 µM (inactive); with SF-539 it was 14.9 µM (inactive). For the same compound, the GI50 is 6.24 µM (inactive) in the experiment on OVCAR-4; < 0.01 µM (active) in the experiment on UO-31; 11.6 µM (inactive) with M14; 2.98 µM (inactive) in the experiment on SK-MEL-5; 12.3 µM (inactive) with 786-0; 16.7 µM (inactive) in the experiment on SK-OV-3. In addition, the GI50 is 1.98 µM (inactive) in the experiment on RXF 393; 7.82 µM (inactive) in the experiment on NCI-H460; 12.3 µM (inactive) with MDA-N; 6.14 µM (inactive) with MCF7; 12 µM (inactive) in the experiment on SW-620; 10.2 µM (inactive) in the experiment on OVCAR-3. Also, the GI50 in the experiment on HCC 2998 was 12.1 µM (inactive).

In the case of `O=C1c2ccccc2C(=O)N1n1c(Cc2ccc([N+](=O)[O-])cc2)n[nH]c1=O`, the GI50 in the experiment on MDA-MB-435, with OVCAR-8, with SR, in the experiment with SN12C, in the experiment on NCI/ADR-RES and with SF-539 was > 100 µM (inactive) throughout. Also, the GI50 with UO-31, with RPMI-8226, in the experiment with SK-MEL-5, with 786-0, with RXF 393 and in the experiment with NCI-H460 was > 100 µM (inactive) each time. In addition, the GI50 in the experiment on MDA-N, in the experiment with MCF7, in the experiment with SW-620, with OVCAR-3 and in the experiment with HCC 2998 was > 100 µM (inactive) throughout.

Regarding `O=CC1C[C@@H](N2C(=O)O[C@@H](c3ccccc3)[C@H]2c2ccccc2)[C@@H]1COCc1ccccc1` (some centres not stated), the GI50 in the experiment with MDA-MB-435 is 18.2 µM (inactive); in the experiment on OVCAR-8, 21.2 µM (inactive); in the experiment on SR it was 10.3 µM (inactive); with SN12C it was 17 µM (inactive); in the experiment with NCI/ADR-RES, 26.6 µM (inactive); with SF-539 it was 18.7 µM (inactive). Besides, the GI50 in the experiment with OVCAR-4 is 28.6 µM (inactive); in the experiment with UO-31, 15.2 µM (inactive); in the experiment with M14, 19.1 µM (inactive); with RPMI-8226, 17.9 µM (inactive); with SK-MEL-5, 15.2 µM (inactive); with 786-0 it was 14.3 µM (inactive). Further, the GI50 with RXF 393 was 18.7 µM (inactive); with NCI-H460, 18.3 µM (inactive); in the experiment on MDA-N it was 15 µM (inactive); in the experiment with MCF7, 17.8 µM (inactive); with SW-620, 21.5 µM (inactive); in the experiment on OVCAR-3 it was 14.8 µM (inactive). Also, the GI50 in the experiment with HCC 2998 was 15 µM (inactive).

`CCOP(=O)(CN1CCNCCNCC1)OCC`: the GI50 in the experiment with MDA-MB-435, with OVCAR-8, with SR, with SN12C, in the experiment on NCI/ADR-RES and in the experiment on SF-539 was > 100 µM (inactive) each time. Further, the GI50 in the experiment with OVCAR-4, in the experiment on UO-31, in the experiment on M14, in the experiment with RPMI-8226, in the experiment with SK-MEL-5 and in the experiment with 786-0 was > 100 µM (inactive) throughout. Moreover, the GI50 with SK-OV-3, in the experiment with NCI-H460, in the experiment with MDA-N, in the experiment on MCF7, with SW-620 and with OVCAR-3 was > 100 µM (inactive) throughout. Besides, the GI50 in the experiment with HCC 2998 is > 100 µM (inactive).

Take `O=C(O)c1cc2ccccc2oc1=O` [COUMARIN-3-CARBOXYLIC ACID]: the GI50 in the experiment with MDA-MB-435, in the experiment on OVCAR-8, with SR, with SN12C, with NCI/ADR-RES and in the experiment on SF-539 was > 100 µM (inactive) throughout. The GI50 with OVCAR-4, in the experiment on UO-31, in the experiment on M14, in the experiment with RPMI-8226, with SK-MEL-5 and with 786-0 was > 100 µM (inactive) in each case. Further, the GI50 in the experiment with RXF 393, in the experiment on NCI-H460, in the experiment with MDA-N, in the experiment with MCF7, in the experiment with SW-620 and in the experiment with OVCAR-3 was > 100 µM (inactive) in each case. For the same compound, the GI50 with HCC 2998 is > 100 µM (inactive).
